# In publication PMC10720262, “Molecular determinants of cross-reactivity and potency by VH3-33 antibodies against the Plasmodium falciparum circumsporozoite protein” (Cell Reports, 2023):
# Like-named read-outs stand apart in the source and are kept apart here.
# What was measured:
# NPDP peptide ([…]) [1] = assay: SPR (Carterra LSA), NPDP peptide; format: binding, Plasmodium falciparum; details: mAb immobilized on CMD200M chip, peptide 2-fold series, top 8 μg/mL ([…]), 1X HBSTE pH 7.4, 25°C, 1:1 Langmuir model, mean of best triplicate
# Description: (§1) Synthetic peptides were custom made by Peptide Speciality Laboratory (PSL), Heidelberg (KQPA ([…]), NPDP ([…]), DND ([…]), NDN ([…]) and NANP3 ([…])), CPC Scientific (NPNA3 ([…]), NANP6 ([…]), KQPA, NPDP and NVDP ([…])) or GenScript (KQPA, NPDP, NANP3, NDN, DND, and NANP5 ([…])). With the exception of NANP6, all other peptides were acetylated at N-termini and amidated at C-termini. NANP6 contained an N-terminal biotin-aminohexanoic acid tag and an unmodified C terminus.
# (§2) In each assay, a single analyte peptide antigen (KQPA, NPDP, NVDP, NPNA3 or NANP6) was titrated against the immobilized mAbs. Using 10 mM MES buffer at pH 5.5 with 0.01% Tween 20 as running buffer, the chip was first activated by N-Hydroxysuccinimide (NHS) and 1-Ethyl-3-(3-dimethylaminopropyl) carbodiimide hydrochloride (EDC). Then, PfCSP-specific mAbs were directly immobilized (in 10 mM sodium acetate at pH 4.5) at 10 μg/mL or 5 μg/mL concentrations for 600 s, followed by quenching of unreactive esters using 1 M ethanolamine-HCl at pH 8.5. […]
# (§3) The kinetics titration data collected were first pre-processed in the Kinetics (Carterra) software, including reference subtraction, buffer subtraction and data smoothing. The data were then exported and analyzed using the TitrationAnalysis tool developed in-house.[58] […] For antigens with multiple repeats of epitopes, the KD values determined includes avidity effect.
# NPNA3 peptide ([…]) = assay: SPR (Carterra LSA), NPNA3 peptide; format: binding, Plasmodium falciparum; details: mAb immobilized on CMD200M chip, peptide 2-fold series, top 8 μg/mL (6.41 μM), 1X HBSTE pH 7.4, 25°C, 1:1 Langmuir model, mean of best triplicate
# Description: as §1, §2, §3
# KQPA peptide ([…]) [2] = assay: SPR (Carterra LSA), KQPA peptide; format: binding, Plasmodium falciparum; details: mAb immobilized on CMD200M chip, peptide 2-fold series, top 8 μg/mL (5.03 μM), 1X HBSTE pH 7.4, 25°C, 1:1 Langmuir model, mean of best triplicate
# Description: as §1, §2, §3
# [3] = target: recombinant full-length PfCSP (strain NF54); assay: Biolayer interferometry (BLI) binding to recombinant PfCSP; design: species or system Plasmodium falciparum; details: Octet RED96, His-tagged PfCSP 10 μg/mL on Ni-NTA biosensors, 2-fold dilutions of mAb in PBS pH 7.4/0.01% BSA/0.002% Tween 20, 1:1 binding model
# Description: The resulting plasmid was transfected into FreeStyle HEK293F cells and GFP fluorescence was used to select for single cells via FACS. The selected single cell was expanded and cultured in GIBCO Freestyle 293 Expression Medium and maintained with 200 μg/mL of geneticin (G418 solution; Invivogen). Protein expression was enabled by subculturing the stable cells without antibiotic to a density of 8 x 10^5 cells/mL and harvested after 5–7 days.
# After a steady baseline was established, biosensors were dipped into wells containing 2-fold dilutions of each mAb in kinetics buffer. Tips were then immersed back into kinetics buffer for measurement of the dissociation rate. Kinetics data were analyzed using the FortéBio’s Octet Data Analysis software 9.0.0.6, and curves were fitted to a 1:1 binding model.
# [4] = tested on: Pf sporozoites (traversal of HC-04 cells); assay: In vitro sporozoite traversal assay; format: cell-based, Plasmodium falciparum; details: Pf NF54 sporozoites pre-incubated with diluted IgG 30 min, rhodamine dextran, 1 h at 37°C, high content imaging
# Description: Pf NF54 asexual and sexual blood stage parasites were cultured in a semi-automated culture system as described by Ponnudurai.[69]^,[70] Sporozoites were produced by feeding Anopheles stephensi mosquitos (Sind-Kasur Nijmegen strain) using standard membrane feeding of cultured gametocytes, as was described by Feldmann.[71] Salivary glands were dissected, collected in Leibovitz L15 medium supplemented with 1% PenStrep and homogenized in a homemade glass grinder. Sporozoites were counted in a Bürker-Türk counting chamber using phase-contrast microscopy.
# Human hepatoma (HC-04) cells were seeded in microtiter plates and grown to near confluence. Fresh P. falciparum salivary gland sporozoites[56] were isolated from Anopheles stephensi mosquitoes and pre-incubated with diluted IgG for 30 min before adding rhodamine dextran. Following incubation for 1 h at 37°C, cell nuclei were stained with DAPI. Fluorescence levels of traversed cells were quantitated using a high content automated imager.
# [5] = tested on: transgenic Plasmodium berghei sporozoites expressing PfCSP (PbPfCSP); assay: Liver burden reduction assay; format: in vivo, Plasmodium berghei in C57BL/6 mice; details: C57BL/6 mice, 100 μg mAb i.v., 16 h later 2,000 PbPfCSP sporozoites i.v., bioluminescence 42 h after challenge; relative to naive mice; n=5
# Description: P. berghei transgenic parasites expressing PfCSP, GFP and luciferase were generated as previously described.[57] Briefly, P. berghei, strain ANKA 676m1c11, which expresses GFP and luciferase were obtained from MR4 (ATCC). Parasites were transfected to replace the CSP gene with a modified gene consisting of the CSP of Pf. To obtain sporozoites, Anopheles stephensi mosquitos were fed on mice infected with the parasite. 19–22 days later salivary glands from the infected mosquitos were obtained and sporozoites were isolated to infect mice.
# Parasite challenge to measure liver burden was assessed as previously described.[57] Briefly, 6-8-week-old C57BL/6 female mice were injected intravenously with 100 μg of the respective mAb. Mice were challenged 16 h later with 2,000 PfCSP-expressing transgenic Pb sporozoites delivered i.v. in HBSS-2% FBS. Mice were injected intraperitoneally with 100 μL of D-luciferin at 30 mg/mL 42 h after sporozoite challenge, anesthetized with isoflurane and imaged in the IVIS Spectrum Imaging System to measure the bioluminescence expressed by the transgenic parasite.
# NANP3 peptide ([…]) [6] = assay: SPR (Biacore T200), NANP3 peptide; format: binding, Plasmodium falciparum
# Description: (§4) With the exception of NANP6, all other peptides were acetylated at N-termini and amidated at C-termini. NANP6 contained an N-terminal biotin-aminohexanoic acid tag and an unmodified C terminus.
# (§5) Affinity of 56 VH3-33 mAbs to DND and NANP3 peptides were measured using SPR in Biacore Cytiva T200, as described before.[21] In brief, series S sensor chip CM5 (GE Healthcare) was docked in the instrument and 10 mM HEPES (pH 7.4) containing 200 mM NaCl, 0.02% Tween 20 and 0.05% BSA was used as running buffer. Anti-human IgG from human antibody capture kit (GE Healthcare) was immobilized in both flow cells through amine coupling following manufacturer’s instructions. […] Upon stabilizing flow cells with running buffer for 20 min, indicated peptides synthesized at PSL Heidelberg were injected at 0, 0.015, 0.09, 0.55, 3.3 and 20 μM concentration at a flow rate of 30 μL/min. Association and dissociation of the peptides were measured at 25°C for 60 s and 180 s, respectively. 3M MgCl2 was used for the regeneration of both flow cells. 1:1 binding model or steady-state kinetic analysis in the Biacore T200 software V2.0 was used for fitting the data and obtaining kinetic rates and constant.
# KQPA peptide ([…]) [7] = assay: Peptide ELISA (AUC), KQPA; format: binding, Plasmodium falciparum
# Description: as §4
# (§6) Antigen ELISAs were performed as previously described.[21]^,[25] In brief, high-binding 384-well polystyrene plates (Corning) were coated overnight at 4°C with 2 μg/mL of the indicated peptides synthesized at PSL, Heidelberg. Plates were washed three times with 0.05% Tween 20 in PBS, blocked with 50 μL of 1% BSA in PBS for 1 h at room temperature (RT), and washed again. For analysis of mAbs, 15 μL/well of serially diluted mAbs (starting concentration 1.0 μg/mL, 1 in 4 dilution for 4 steps) were incubated for 2 h at RT. Wells were washed six times and incubated with goat anti-human IgG-HRP at a 1:1000 dilution (Jackson ImmunoResearch) in PBS with 1% BSA for 1 h. Wells were washed again and one-step ABTS substrate (RT, 20 μL/well; Roche) and 1× KPL ABTS peroxidase stop solution (RT, 20 μL/well; SeraCare Life Sciences) were used for detection. Area under the ELISA curve (AUC) was calculated using GraphPad Prism 7.04 (GraphPad).
# DND peptide ([…]) [8] = assay: Peptide ELISA (AUC), DND; format: binding, Plasmodium falciparum; details: ELISA Area Under the Curve
# Description: as §4, §6
# NANP3 peptide ([…]) [9] = assay: Peptide ELISA (AUC), NANP3; format: binding, Plasmodium falciparum
# Description: as §4, §6
# NDN peptide ([…]) = assay: Peptide ELISA (AUC), NDN; format: binding, Plasmodium falciparum
# Description: as §4, §6
# DND peptide ([…]) [10] = assay: SPR (Biacore T200), DND peptide; format: binding, Plasmodium falciparum
# Description: as §4, §5
# NANP6 peptide ([…]) = assay: SPR (Carterra LSA), NANP6 peptide; format: binding, Plasmodium falciparum; details: mAb immobilized on CMD200M chip, peptide 2-fold series, top 8 μg/mL (2.92 μM), 1X HBSTE pH 7.4, 25°C, 1:1 Langmuir model, mean of best triplicate, KD includes avidity effect for antigens with multiple repeats of epitopes
# Description: as §1, §2, §3
# NPDP peptide ([…]) [11] = assay: Peptide ELISA (AUC), NPDP; format: binding, Plasmodium falciparum; details: plates coated with 2 μg/mL peptide; mAb from 1.0 μg/mL, 1 in 4 dilution, 4 steps; area under ELISA curve; mean of three independent experiments
# Description: as §4, §6
# [12] = plates coated with 2 μg/mL peptide, mAb from 1.0 μg/mL, 1 in 4 dilution, 4 steps, area under ELISA curve, mean of three independent experiments
substance,measurement,setting,value
"Ky311: VH3-33/Vk3-11 anti-PfCSP mAb from Kymouse platform, expressed as human IgG1; MGG4-like binding mode",Kd,NPDP peptide ([…]) [1],3.75 nM
same,Kd,NPNA3 peptide ([…]),1.07 nM
same,Kd,KQPA peptide ([…]) [2],427 nM
same,Kd,[3],7.39 nM
same,Traversal Inhibition IC50,[4],0.664 µg/mL
same,Liver Burden Assay Reduction,[5],75%
LVQLVESGGGVVQPGRSLRLSCAASGFTFSSSGMHWVRQAPGKGLEWVAIIWYDGSNKFYADSVKGRFTISRDNSKNTLYLQMNSLRAEDTAVYYCARAYVSGSHGDKYGMDVWGQGTTVTVSS [CL-531912],Kd,"NANP3 peptide ([…]) [6]; SPR, NANP3 peptide, read-out: NANP3 KD",55 nM
QVQLVESGGGVVQPGGSLRLSCAASGFTFSGSGMHWVRHAPGKGLEWVAIIWYDGSNKFYADSVKGRFTISRDNSRNTLYLQMNSLRAEDTAVYYCARAYVSGNYGDKYGMDVWGQGTTVTVSS [CL-532151],KQPA AUC,"KQPA peptide ([…]) [7]; ELISA Area Under the Curve, KQPA peptide",1.36
same,DND AUC,DND peptide ([…]) [8],2.23
same,NANP3 AUC,"NANP3 peptide ([…]) [9]; ELISA Area Under the Curve, NANP3 peptide",1.84
same,NDN AUC,"NDN peptide ([…]); ELISA Area Under the Curve, NDN peptide",0.29
QIQLVESGGGVVQPGRSLRLSCAASGFTFSTYGMHWVRQAPGKGLEWVAVIWYDGSNKYYADSVQGRFTISRDNSKNTLYLQMNSLRAEDTAIYYCTTVGPIPFDYWGQGTLVTVSS [CL-514716],NANP3 KD (M),"NANP3 peptide ([…]) [6]; SPR, NANP3 peptide",Non-binder
same,DND KD (M),DND peptide ([…]) [10],Non-binder
mAb CIS43: previously characterized NPDP-specific human anti-PfCSP mAb (IGHV1-3) [reference compound],Kd,NPDP peptide ([…]) [1],19.1 nM
same,Kd,NPNA3 peptide ([…]),9430 nM
same,SPR KQPA KD,KQPA peptide ([…]) [2],Non-binder
same,Kd,NANP6 peptide ([…]),54.9 nM
same,ELISA AUC NPDP,NPDP peptide ([…]) [11],1.50
same,ELISA AUC KQPA,KQPA peptide ([…]) [7]; [12],0.10
same,Kd,[3],15.6 nM
same,ELISA AUC NANP3,NANP3 peptide ([…]) [9]; [12],0.20
same,Traversal Inhibition IC50,[4],0.362 µg/mL
same,ELISA AUC NDN,NDN peptide ([…]); [12],0.20
same,Kd,"NANP3 peptide ([…]) [6]; Biacore T200, mAb captured via anti-human IgG on CM5, peptide 0-20 μM, 25°C, 1:1 binding model or steady-state analysis, single measurement for sample mAbs, three independent measurements for previously characterized mAbs, read-out: SPR NANP3 KD",1720 nM
